Measurements taken from US12173089B2, “Inhibition of pulmonary fibrosis with nutlin-3A and peptides” (BOARD OF REGENTS, THE UNIVERSITY OF TEXAS SYSTEM, priority 2013, dated 2024).

Key:
[1] = system: FL(IPF)-tissues; test: Ex vivo treatment of FL-lung tissues from IPF patients; type: cell-based, human; details: for PAI-1 levels in fibroblasts isolated from IPF explants / Phosphorylation of Akt in fibroblasts from IPF explants / expression of PDGFR-β mRNA and protein in fibroblasts from IPF explants / miR-34a levels in fibroblasts isolated from IPF explants / p53 levels in fibroblasts isolated from IPF explants / uPA expression in fibroblasts isolated from IPF explants / uPAR expression in fibroblasts isolated from IPF explants / ECM synthetic rates of FL-lung explants: nutlin-3a 10 μM or CSP-4 10 nM, 3 to 7 days; for ECM synthetic rates of FL-lung explants: vs untreated, vehicle or CP; for production of ECM of fibroblasts from IPF explants / rate of proliferation of fibroblasts from IPF explants: vs FL-fibroblasts from untreated, vehicle- or CP-treated controls
Description: Freshly dissected FL-lung tissues from IPF patients are treated with nutlin-3a (10 μM) or CSP-4 (10 nM) for 3 to 7 days (see FIG. 13). Lung tissues are homogenized and tested for changes in ECM (hydroxyproline and desmosine). Controls include fibrotic lung (FL)-tissues from IPF patients treated with vehicle or control peptide, CP or naive lung tissues maintained in culture medium. Other controls include NL-tissues resected from histologically “normal” lungs. De-identified patient (“normal” and IPF) lungs that were not suitable for transplantation and donated for medical research are obtained through HAM (Edison, NJ) and the NDRI (Philadelphia, PA) and used for ex vivo studies. Fibroblasts are isolated from these tissues and analyzed for changes in p53, uPA, uPAR and PAI-1 expression, production of ECM and viability. Changes in rate of ECM synthesis are also measured. FL-tissue explants from patients with IPF have elevated synthesis of ECM when compared to expression levels in the slices of NL-tissues from control subjects. […] Phosphorylation of Akt and expression of PDGFR-β mRNA and protein also are reduced in fibroblasts from IPF explants treated with nutlin-3a or CSP-4.

[2] = system: LPS-stimulated neutrophils and macrophages; details: cited from earlier work
[3] = system: FL-fibroblasts; test: Proliferation of cultured FL-fibroblasts (cell count); type: cell-based, human; details: cells counted after 3 d
Description: FIGS. 8A-8C. Role of p53-fibrinolytic system cross-talk in nutlin-3a (NTL) or CSP-4-mediated inhibition of col-I expression in FL(IPF)-fibroblasts. (FIG. 8A) FL-fibroblasts were exposed to PBS, nutlin-3a (10 uM), CSP-4 (10 nM) or control peptide (CP) for 48 h. The cell lysates were immunoblotted for the expression of Col-I, PAI-1, p53, uPA and β-actin. (FIG. 8B) FL-fibroblasts cultured in 12 well plates in DMEM media were exposed to vehicle (PBS) or nutlin-3a, CSP-4 or CP. After 3 d, cells were detached and counted. (FIG. 8C) FL-fibroblasts were transduced with empty adenovirus vector alone (Ad-EV) or Ad-vector expressing p53 (Ad-p53), PAI-1 (Ad-PAI-1) or caveolin-1 (Ad-Cav-1). After 48 h, cell lysates were immunoblotted for Col-I, p53, PAI-1, uPA and β-actin.
FL-fibroblasts were exposed to PBS (control), nutlin-3a (10 μM), CSP-4 (10 nM) or CP for 48 hrs. Lysates were immunoblotted for the expression of Col-I, PAI-1, p53, and uPA. Cultured FL- were exposed to vehicle (PBS) or nutlin-3a, CSP-4 or CP and counted to assess proliferation. […] The process involves induction of p53 and PAI-1 expression, and concurrent inhibition of uPA.

[4] = system: fibrotic lung tissue explants; test: Ex vivo treatment of fibrotic lung tissue explants of BLM mice, col-I and α-SMA by Western blotting; type: cell-based; details: CSP-4 10 nM, nutlin-3a 10 μM, 72 h
Description: FIG. 13. Inhibition of BLM-induced pulmonary fibrosis by ex vivo treatment of WT mice lung tissues with CSP-4 or nutlin-3a (NTL). Mice were exposed to intranasal BLM for 21 d to induce pulmonary fibrosis. These mice (n=3) were sacrificed, lungs were excised, chopped into small pieces and placed in culture dishes with DMEM medium containing 10% fetal bovine serum. The tissue samples were later treated with CSP-4 (10 nM), control peptide (CP) and nutlin-3a (TL) (10 μM) for 72 h. Conditioned medium and tissue lysates were prepared and analyzed for changes in col-I, a-SMA and β-actin by Western blotting.
Mice were exposed to intranasal BLM for 21 d to induce pulmonary fibrosis, sacrificed, and their lungs excised and chopped into small pieces and placed into culture medium. These tissue samples were thereafter treated with 10 nM CSP-4 peptide, control peptide (CP) or nutlin-3a for 72 h. Conditioned medium and tissue lysates were and analyzed for changes in col-I and α-SMA by Western blotting. […] The present inventors' results provided herein and in recent reports (e.g., Bhandary et al, 2012, 2013, supra), strongly support the conception that p53-mediated downstream changes in uPA and PAI-1 regulates viability of FL-fibroblasts.

[5] = system: LPS-induced ALI; details: mice; cited from earlier work
[6] = system: FL-fibroblasts; test: Deletional analysis of CSP: peptide fragments tested on FL-fibroblasts for changes in p53, uPA, PAI-1 and col-I; type: cell-based, human
Description: FIGS. 6A-6D. CSP (CSP4) augments p53 expression via induction of miR-34a in FL(IPF)-fibroblasts. (FIG. 6A) NL- and FL-fibroblasts (n=3) were treated with PBS, CSP-4 (CSP) or control peptide (CP). RNA was analyzed for miR-34a by real-time PCR. (FIG. 6B) FL-fibroblasts were treated with PBS or CSP or CP with or without miR-34a antisense (miR-34a-AS) or pre-miR-34a or control miRNA (Ctr-miR). Conditioned media (CM) were immunoblotted for PAI-1 and lysates (CL) for p53 and β-actin. (FIG. 6C) FL-fibroblasts were treated with PBS or CSP or CP in the presence or absence of miR-34a-AS, pre-miR-34a or Ctr-miR. RNA was analyzed for changes in miR-34a by real-time PCR. (FIG. 6D) A series of overlapping deletions were made in CSP and these peptides were used to treat FL-fibroblasts with. The peptide sequences were CSP (SEQ ID NO:2), CSP-2: DGIWKAS (SEQ ID NO:12), CSP-3: KYWFYR (SEQ ID NO:13), CSP-4 (SEQ ID NO:1), and CP (SEQ ID NO:5). Changes in p53, uPA, PAI-1 and col-I were later assessed to identify the minimum amino acids required for the CSP effects.
A series of overlapping deletions were made in CSP and these peptide fragments were tested on FL-fibroblasts for changes in p53, uPA, PAI-1 and col-I (FIG. 6D).

| Compound | PAI-1 levels in fibroblasts isolated from IPF explants [1] | Phosphorylation of Akt in fibroblasts from IPF explants [1] | expression of PDGFR-β mRNA and protein in fibroblasts from IPF explants [1] | miR-34a levels in fibroblasts isolated from IPF explants [1] | p53 levels in fibroblasts isolated from IPF explants [1] | uPA expression in fibroblasts isolated from IPF explants [1] | uPAR expression in fibroblasts isolated from IPF explants [1] | ECM synthetic rates of FL-lung explants [1] | production of ECM of fibroblasts from IPF explants [1] | rate of proliferation of fibroblasts from IPF explants [1] | NF-κB DNA-binding activity [2] | production of proinflammatory cytokines [2] | proliferation of FL-fibroblasts [3] | fibrosis ex vivo (changes in col-I and α-SMA) [4] | severity of LPS-induced ALI [5] | activity in deletional analysis of the CSP 20mer (changes in p53, uPA, PAI-1 and col-I) [6] |
| --- | --- | --- | --- | --- | --- | --- | --- | --- | --- | --- | --- | --- | --- | --- | --- | --- |
| COc1ccc(C2=NC(c3ccc(Cl)cc3)C(c3ccc(Cl)cc3)N2C(=O)N2CCNC(=O)C2)c(OC(C)C)c1 (stereo not shown) [nutlin-3a, 4-2-4,5-dihydro-1H-imidazole-1-piperazin-2-one] | elevated levels | reduced | reduced | elevated levels | elevated levels | reduced | reduced | significantly reduced | significantly lower | significantly lower | attenuated | attenuated | inhibited | inhibited | reduced | – |
| FTTFTVT [CSP-4] | elevated levels | reduced | reduced | elevated levels | elevated levels | reduced | reduced | significantly reduced | significantly lower | significantly lower | – | – | inhibited | inhibited | – | had the activity of the full length peptide |
